Reference: patent publication US20230114728A1 (Venatorx Pharmaceuticals, Inc., priority 2019, published 2023)
≈ marks a conversion by molar mass, not a printed value.

Key:
[1] = tested on: P. aeruginosa ATCC 27853; assay: Broth microdilution MIC in CAMHB; format: cell-based; conditions: Pseudomonas aeruginosa, ATCC27853; MHB; read-out: Minimum Inhibitory Concentration, P. aeruginosa ATCC 27853
Procedure, shortened: (§1)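 Hyper-permeable or efflux-deficient strains serve to probe outer-membrane penetration. Growth inhibition is scored visually after 16-20 h at 37° C in CAMHB, starting from 2-8×10^5 CFU/mL.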

[2] = tested on: K. pneumoniae 848844 producing SHV-11 and KPC-2; assay: Broth microdilution MIC in CAMHB; format: cell-based; conditions: Klebsiella pneumoniae, read-out: Minimum Inhibitory Concentration, K. pneumoniae 848844
Procedure, shortened: as §1

[3] = tested on: E. coli AG100A; assay: Broth microdilution MIC in CAMHB; format: cell-based; conditions: Escherichia coli, read-out: Minimum Inhibitory Concentration, E. coli AG100A
Procedure, shortened: as §1

[4] = tested on: E. coli ATCC 25922; assay: Broth microdilution MIC in CAMHB; format: cell-based; conditions: Escherichia coli, ATCC25922; E. coli ATCC 25922; MHB; read-out: Minimum Inhibitory Concentration, E. coli 25922
Procedure, shortened: as §1

[5] = tested on: K. pneumoniae UMM producing SHV-5 and KPC-2; assay: Broth microdilution MIC in CAMHB; format: cell-based; conditions: Klebsiella pneumoniae, read-out: Minimum Inhibitory Concentration, K. pneumoniae UMM
Procedure, shortened: as §1

[6] = tested on: P. aeruginosa ATCC 35151; assay: Broth microdilution MIC in CAMHB; format: cell-based; conditions: Pseudomonas aeruginosa, ATCC35151; MHB; hyper-permeable strain; read-out: Minimum Inhibitory Concentration, P. aeruginosa ATCC 35151
Procedure, shortened: as §1

[7] = tested on: P. aeruginosa (ΔmexAB-oprM); assay: Broth microdilution MIC in CAMHB; format: cell-based; conditions: Pseudomonas aeruginosa, read-out: Minimum Inhibitory Concentration, P. aeruginosa ΔmexAB-OprM
Procedure, shortened: as §1

[8] = molecular target: T1, P. aeruginosa PBP3 (Pseudomonas aeruginosa, UniProt G3XD46); assay: Bocillin-FL fluorescence polarization competition binding assay, P. aeruginosa PBP3; conditions: fluorescence polarization competition binding assay using Bocillin-FL
T1 construct: made in house
T1 sequence (G3XD46 whole entry): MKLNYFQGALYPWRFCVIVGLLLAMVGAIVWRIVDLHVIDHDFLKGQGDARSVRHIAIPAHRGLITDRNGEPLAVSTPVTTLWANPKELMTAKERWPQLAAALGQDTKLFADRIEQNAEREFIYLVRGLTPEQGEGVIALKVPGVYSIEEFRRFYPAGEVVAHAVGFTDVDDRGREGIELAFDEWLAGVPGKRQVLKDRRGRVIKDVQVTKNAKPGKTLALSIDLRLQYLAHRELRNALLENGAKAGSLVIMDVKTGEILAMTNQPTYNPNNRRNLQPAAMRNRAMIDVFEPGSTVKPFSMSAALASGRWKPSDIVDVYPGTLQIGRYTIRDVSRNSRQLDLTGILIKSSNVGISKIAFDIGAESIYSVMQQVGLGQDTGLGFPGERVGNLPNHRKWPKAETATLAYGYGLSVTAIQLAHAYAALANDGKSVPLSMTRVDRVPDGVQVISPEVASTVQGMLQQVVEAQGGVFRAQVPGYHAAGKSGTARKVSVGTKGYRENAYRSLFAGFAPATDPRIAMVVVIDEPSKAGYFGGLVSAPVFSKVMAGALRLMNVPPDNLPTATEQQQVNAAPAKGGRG
Procedure, shortened: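 Inhibitor competition with Bocillin-FL for P. aeruginosa PBP3 was followed by fluorescence polarization on a Cytation3 (BioTek) reader, using g-factor 0.96, 490 nm excitation and 520 nm emission. The enzyme was at 0.75 μM and the probe at 0.1 μM in Hepes/NaCl/glycerol buffer, 80 μl per well. FP was recorded immediately after probe addition for up to 60 minutes. Potency was expressed as EC50, the concentration that reduces bound probe by 50%.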

| Structure (SMILES) | MIC [1] [µg/mL] | MIC [2] [µg/mL] | MIC [3] [µg/mL] | MIC [4] [µg/mL] | MIC [5] [µg/mL] | MIC [6] [µg/mL] | MIC [7] [µg/mL] | P. aeruginosa PBP3 Potency [8] |
| --- | --- | --- | --- | --- | --- | --- | --- | --- |
| O=C(O)c1cccc2c1OB(O)[C@@H](NC(=O)C(NC(=O)N1CCN(CCF)C(=O)C1=O)c1c(F)cc(O)cc1F)C2 (mixture of isomers) [Example 119, (3R)-3-(2-(2,6-difluoro-4-hydroxyphenyl)-2-(4-(2-fluoroethyl)-2,3-dioxopiperazine-1-carboxamido)acetamido)-2-hydroxy-3,4-dihydro-2H-benzo[e][1,2]oxaborinine-8-carboxylic acid] | > 128 | 32 to 64 (≈ 55.3 to 111 µM) | 0.5 to 1 (≈ 0.865 to 1.73 µM) | 8 to 16 (≈ 13.8 to 27.7 µM) | 8 to 16 (≈ 13.8 to 27.7 µM) | 2 to 4 (≈ 3.46 to 6.92 µM) | 8 to 16 (≈ 13.8 to 27.7 µM) | – |
| NCCN1CCN(C(=O)N[C@H](C(=O)N[C@H]2Cc3cccc(C(=O)O)c3OB2O)c2c(F)cc(O)cc2F)C(=O)C1=O (single isomer, unassigned) [Example 110] | > 128 | > 128 | 8 to 16 (≈ 13.9 to 27.8 µM) | > 128 | > 128 | 8 to 16 (≈ 13.9 to 27.8 µM) | 32 to 64 (≈ 55.6 to 111 µM) | B (B represents a potency between 30 μM and 500 μM inclusive) |
| NCCN1CCN(C(=O)N[C@@H](C(=O)N[C@H]2Cc3cccc(C(=O)O)c3OB2O)c2c(F)cc(O)cc2F)C(=O)C1=O (single isomer, unassigned) [Example 111] | > 128 | 8 to 16 (≈ 13.9 to 27.8 µM) | 0.5 to 1 (≈ 0.869 to 1.74 µM) | 8 to 16 (≈ 13.9 to 27.8 µM) | 8 to 16 (≈ 13.9 to 27.8 µM) | 0.5 to 1 (≈ 0.869 to 1.74 µM) | 8 to 16 (≈ 13.9 to 27.8 µM) | D (D represents a potency <10 μM) |
| NCCN1CCN(C(=O)N[C@@H](C(=O)N[C@H]2Cc3cccc(C(=O)O)c3OB2O)c2cccc(NS(N)(=O)=O)c2)C(=O)C1=O (single isomer, unassigned) [Example 114] | > 128 | 32 to 64 (≈ 51.8 to 104 µM) | 2 to 4 (≈ 3.24 to 6.48 µM) | 32 to 64 (≈ 51.8 to 104 µM) | 32 to 64 (≈ 51.8 to 104 µM) | 0.5 to 1 (≈ 0.81 to 1.62 µM) | 2 to 4 (≈ 3.24 to 6.48 µM) | D (D represents a potency <10 μM) |
| NCCN1CCN(C(=O)N[C@H](C(=O)N[C@H]2Cc3cccc(C(=O)O)c3OB2O)c2cccc(NS(N)(=O)=O)c2)C(=O)C1=O (single isomer, unassigned) [Example 115] | > 128 | > 128 | 8 to 16 (≈ 13 to 25.9 µM) | > 128 | > 128 | 2 to 4 (≈ 3.24 to 6.48 µM) | 8 to 16 (≈ 13 to 25.9 µM) | C (C represents a potency between 10 and 30 μM) |
| NC1(CN2CCN(C(=O)N[C@@H](C(=O)N[C@H]3Cc4cccc(C(=O)O)c4OB3O)c3c(F)cc(O)cc3F)C(=O)C2=O)CC1 (single isomer, unassigned) [Example 121] | > 128 | 32 to 64 (≈ 53.2 to 106 µM) | 2 to 4 (≈ 3.33 to 6.65 µM) | 8 to 16 (≈ 13.3 to 26.6 µM) | 8 to 16 (≈ 13.3 to 26.6 µM) | 0.5 to 1 (≈ 0.831 to 1.66 µM) | 8 to 16 (≈ 13.3 to 26.6 µM) | D (D represents a potency <10 μM) |
| NC1(CN2CCN(C(=O)N[C@H](C(=O)N[C@H]3Cc4cccc(C(=O)O)c4OB3O)c3c(F)cc(O)cc3F)C(=O)C2=O)CC1 (single isomer, unassigned) [Example 122] | > 128 | > 128 | 8 to 16 (≈ 13.3 to 26.6 µM) | 32 to 64 (≈ 53.2 to 106 µM) | 32 to 64 (≈ 53.2 to 106 µM) | 2 to 4 (≈ 3.33 to 6.65 µM) | 32 to 64 (≈ 53.2 to 106 µM) | D (D represents a potency <10 μM) |
| CCN1CCN(C(=O)N[C@H](C(=O)N[C@H]2Cc3cccc(C(=O)O)c3OB2O)c2ccc(C(=O)O)cc2)C(=O)C1=O (single isomer, unassigned) [Example 123] | > 128 | > 128 | 8 to 16 (≈ 14.5 to 29 µM) | > 128 | > 128 | 0.5 to 1 (≈ 0.905 to 1.81 µM) | 8 to 16 (≈ 14.5 to 29 µM) | D (D represents a potency <10 μM) |
| CCN1CCN(C(=O)N[C@@H](C(=O)N[C@H]2Cc3cccc(C(=O)O)c3OB2O)c2ccc(C(=O)O)cc2)C(=O)C1=O (single isomer, unassigned) [Example 124] | 32 to 64 (≈ 57.9 to 116 µM) | > 128 | 2 to 4 (≈ 3.62 to 7.24 µM) | 32 to 64 (≈ 57.9 to 116 µM) | 32 to 64 (≈ 57.9 to 116 µM) | < 0.25 | 2 to 4 (≈ 3.62 to 7.24 µM) | D (D represents a potency <10 μM) |
| O=C(O)c1cccc2c1OB(O)[C@@H](NC(=O)[C@H](NC(=O)N1CCN(CCF)C(=O)C1=O)c1c(F)cc(O)cc1F)C2 (single isomer, unassigned) [Example 126] | > 128 | 32 to 64 (≈ 55.3 to 111 µM) | – | 8 to 16 (≈ 13.8 to 27.7 µM) | 8 to 16 (≈ 13.8 to 27.7 µM) | 2 to 4 (≈ 3.46 to 6.92 µM) | 8 to 16 (≈ 13.8 to 27.7 µM) | D (D represents a potency <10 μM) |
| NC1(CN2CCN(C(=O)N[C@@H](C(=O)N[C@H]3Cc4ccc(F)c(C(=O)O)c4OB3O)c3cc(F)c(O)c(O)c3Cl)C(=O)C2=O)CC1 (single isomer, unassigned) [Example 133] | – | – | – | – | – | – | – | D (D represents a potency <10 μM) |
| NC1(CN2CCN(C(=O)N[C@@H](C(=O)N[C@H]3Cc4ccc(F)c(C(=O)O)c4OB3O)c3c(F)cc(O)c(O)c3Cl)C(=O)C2=O)CC1 (single isomer, unassigned) [Example 134] | – | – | – | – | – | – | – | D (D represents a potency <10 μM) |
| NCCN1CCN(C(=O)N[C@@H](C(=O)N[C@H]2Cc3cccc(C(=O)O)c3OB2O)c2cc(Cl)c(O)c(Cl)c2)C(=O)C1=O (single isomer, unassigned) [Example 166] | 8 to 16 (≈ 13.2 to 26.3 µM) | 32 to 64 (≈ 52.6 to 105 µM) | 0.5 to 1 (≈ 0.822 to 1.64 µM) | 8 to 16 (≈ 13.2 to 26.3 µM) | 32 to 64 (≈ 52.6 to 105 µM) | < 0.25 | 2 to 4 (≈ 3.29 to 6.58 µM) | – |
| NCCN1CCN(C(=O)N[C@@H](C(=O)N[C@H]2Cc3ccc(F)c(C(=O)O)c3OB2O)c2cc(F)c(O)c(O)c2Cl)C(=O)C1=O (single isomer, unassigned) [Example 179] | – | – | – | – | – | – | – | D (D represents a potency <10 μM) |
| NCCCN1CCN(C(=O)N[C@@H](C(=O)N[C@H]2Cc3ccc(F)c(C(=O)O)c3OB2O)c2cc(F)c(O)c(O)c2Cl)C(=O)C1=O (single isomer, unassigned) [Example 180] | – | – | – | – | – | – | – | D (D represents a potency <10 μM) |
| C[C@@H](O)[C@@H](NC(=O)N1CCN(CCNC(=O)c2c(F)cc(O)c(O)c2Cl)C(=O)C1=O)C(=O)N[C@H]1Cc2ccc(F)c(C(=O)O)c2OB1O [Example 102, (R)-3-((2R,3R)-2-(4-(2-(2-chloro-6-fluoro-3,4-dihydroxybenzamido)ethyl)-2,3-dioxopiperazine-1-carboxamido)-3-hydroxybutanamido)-7-fluoro-2-hydroxy-3,4-dihydro-2H-benzo[e][1,2]oxaborinine-8-carboxylic acid] | – | – | – | – | – | – | – | D (D represents a potency <10 μM) |
| CCN1CCN(C(=O)NC(C(=O)N[C@H]2Cc3cccc(C(=O)O)c3OB2O)c2c(F)cc(O)cc2F)C(=O)C1=O (stereo partly drawn) [Example 105, (3R)-3-(2-(2,6-difluoro-4-hydroxyphenyl)-2-(4-ethyl-2,3-dioxopiperazine-1-carboxamido)acetamido)-2-hydroxy-3,4-dihydro-2H-benzo[e][1,2]oxaborinine-8-carboxylic acid] | – | 32 to 64 (≈ 57.1 to 114 µM) | 0.5 to 1 (≈ 0.892 to 1.78 µM) | 8 to 16 (≈ 14.3 to 28.6 µM) | 8 to 16 (≈ 14.3 to 28.6 µM) | – | – | D (D represents a potency <10 μM) |
| NS(=O)(=O)Nc1cccc(C(NC(=O)N2CCN(Cc3c(F)cc(O)c(O)c3Cl)C(=O)C2=O)C(=O)N[C@H]2Cc3cccc(C(=O)O)c3OB2O)c1 (stereo partly drawn) [Example 131, (3R)-3-(2-(4-(2-chloro-6-fluoro-3,4-dihydroxybenzyl)-2,3-dioxopiperazine-1-carboxamido)-2-(3-(sulfamoylamino)phenyl)acetamido)-2-hydroxy-3,4-dihydro-2H-benzo[e][1,2]oxaborinine-8-carboxylic acid] | – | – | – | – | – | – | – | D (D represents a potency <10 μM) |
| NS(=O)(=O)c1cc(O)cc(C(NC(=O)N2CCN(Cc3c(F)cc(O)c(O)c3Cl)C(=O)C2=O)C(=O)N[C@H]2Cc3cccc(C(=O)O)c3OB2O)c1 (stereo partly drawn) [Example 132, (3R)-3-(2-(4-(2-chloro-6-fluoro-3,4-dihydroxybenzyl)-2,3-dioxopiperazine-1-carboxamido)-2-(3-hydroxy-5-sulfamoylphenyl)acetamido)-2-hydroxy-3,4-dihydro-2H-benzo[e][1,2]oxaborinine-8-carboxylic acid] | – | – | – | – | – | – | – | D (D represents a potency <10 μM) |
| CCN1CCN(C(=O)NC(C(=O)N[C@H]2Cc3cccc(C(=O)O)c3OB2O)c2c(F)cc(N)cc2F)C(=O)C1=O (stereo partly drawn) [Example 181, (3R)-3-(2-(4-amino-2,6-difluorophenyl)-2-(4-ethyl-2,3-dioxopiperazine-1-carboxamido)acetamido)-2-hydroxy-3,4-dihydro-2H-benzo[e][1,2]oxaborinine-8-carboxylic acid] | > 128 | > 128 | 2 to 4 (≈ 3.58 to 7.15 µM) | 32 to 64 (≈ 57.2 to 114 µM) | 32 to 64 (≈ 57.2 to 114 µM) | 0.5 to 1 (≈ 0.894 to 1.79 µM) | 8 to 16 (≈ 14.3 to 28.6 µM) | – |
